This note sets out measurements from patent US8852554B2, “Radiolabelled PDE10 ligands” (Janssen Pharmaceutica NV, priority 2009, dated 2014).

Structures can show the parent of a compound that is named as a salt.

For data set [1], the target named is T1, Rat recombinant PDE10A (rPDE10A) (Rattus norvegicus, UniProt Q9QYJ6).
T1 construct: made in house; host or cells: Sf9 insect cells (baculovirus)
T1 sequence (Q9QYJ6 1-794): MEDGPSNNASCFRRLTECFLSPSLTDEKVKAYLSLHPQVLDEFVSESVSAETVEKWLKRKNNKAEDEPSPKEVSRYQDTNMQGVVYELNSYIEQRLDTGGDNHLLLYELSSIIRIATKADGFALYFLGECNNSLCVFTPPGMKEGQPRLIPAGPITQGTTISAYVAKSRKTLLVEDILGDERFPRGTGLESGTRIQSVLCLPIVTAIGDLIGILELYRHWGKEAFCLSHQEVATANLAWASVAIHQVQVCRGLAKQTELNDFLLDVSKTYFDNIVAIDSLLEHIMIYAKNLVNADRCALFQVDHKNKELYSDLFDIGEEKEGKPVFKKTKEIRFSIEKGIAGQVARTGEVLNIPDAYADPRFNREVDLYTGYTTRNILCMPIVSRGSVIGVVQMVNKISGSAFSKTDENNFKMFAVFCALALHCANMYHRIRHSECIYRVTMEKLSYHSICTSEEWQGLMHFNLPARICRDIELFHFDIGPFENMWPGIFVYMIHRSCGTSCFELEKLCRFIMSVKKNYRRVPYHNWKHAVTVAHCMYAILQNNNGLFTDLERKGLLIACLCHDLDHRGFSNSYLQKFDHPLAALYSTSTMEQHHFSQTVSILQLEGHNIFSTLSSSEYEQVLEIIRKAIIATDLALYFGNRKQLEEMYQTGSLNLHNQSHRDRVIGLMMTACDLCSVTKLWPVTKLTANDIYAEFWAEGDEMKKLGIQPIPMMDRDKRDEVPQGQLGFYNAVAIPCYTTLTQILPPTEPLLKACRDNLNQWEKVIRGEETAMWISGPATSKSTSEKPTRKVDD
The data set can be described thus: rat PDE10A2-cAMP inhibition, in vitro SPA assay. Format: biochemical. As to conditions: 60 nM cAMP substrate. How it is done:
Rat recombinant PDE10A (rPDE10A) was expressed in Sf9 cells using a recombinant rPDE10A baculovirus construct. Cells were harvested after 48 h of infection and the rPDE10A protein was purified by metal chelate chromatography on Ni-sepharose 6FF. Tested compounds were dissolved and diluted in 100% DMSO to a concentration 100 fold of the final concentration in the assay. Compound dilutions (0.4 μl) were added in 384 well plates to 20 μl of incubation buffer (50 mM Tris pH 7.8, 8.3 mM MgCl2, 1.7 mM EGTA). 10 μl of rPDE10A enzyme in incubation buffer was added and the reaction was started by addition of 10 μl substrate to a final concentration of 60 nM cAMP and 0.008 μCi 3H-cAMP. The reaction was incubated for 60 minutes at room temperature. […] After sedimentation of the beads during 30 minutes, the radioactivity was measured in a Perkin Elmer Topcount scintillation counter and results were expressed as cpm. For blanc values the enzyme was omitted from the reaction and replaced by incubation buffer. Control values were obtained by addition of a final concentration of 1% DMSO instead of compound.

For a further data set, the target named is T2, PDE10A (Rattus norvegicus, UniProt Q9QYJ6).
T2 construct: from tissue; host or cells: brain (striatum) of living male Wistar rats, in vivo microPET
T2 sequence (Q9QYJ6 1-794): T1 sequence (Q9QYJ6 1-794)
The data set can be described thus: MicroPET imaging studies. The conditions noted are these: simplified reference tissue model, cerebellum as reference. It counts as in vivo, male Wistar rats. As for the experimental part: Imaging experiments were performed on a Focus™ 220 microPET scanner (Concorde Microsystems, Knoxville, Tenn., USA) using male Wistar rats with body weight varying between 300 and 600 g. […] Dynamic scans of 120 min were acquired in list mode. After reconstruction of the images, they were semi-automatically co-registered with a [^11C]raclopride template of the rat brain, and volumes of interest (VOIs) were generated for different anatomical brain structures (striatum, cerebral cortex and cerebellum) from which time-activity curves (TAC) were constructed for each individual image, using PMOD software (PMOD Technologies Ltd.). Normalization for body weight of the animal and injected dose was done. The radioactivity concentration in the different brain regions was expressed as SUV (standardized uptake value) as a function of time in seconds post injection of the radiotracer. The parametric binding potential (BP) values were calculated for all acquired images by using a simplified reference tissue model where the TAC of the cerebellum was used as input TAC for non-specific binding, using the same software (PMOD).
The radioactivity concentration in the different brain regions was expressed as SUV value as a function of time p.i. of the radiotracer by normalization for body weight of the animal and injected dose.

Take `FCCCn1cc(-c2ccncc2)c(-c2ccc(OCc3ccc(OCCF)cn3)cc2)n1` [Compound B15, 5-(2-fluoroethoxy)-2-[[4-[1-(3-fluoropropyl)-4-(4-pyridinyl)-1H-pyrazol-3-yl]phenoxy]methyl]-pyridine]: the melting point came out at 206.8 °C. Moreover, the concentration for half-maximal inhibition (IC50) in data set [1] was 251 nM.

With `FCCn1cc(-c2ccncc2)c(-c2ccc(OCc3ccc(C(F)(F)F)cn3)cc2)n1` [Compound B22, 2-[[4-[1-(2-fluoroethyl)-4-(4-pyridinyl)-1H-pyrazol-3-yl]phenoxy]methyl]-5-(trifluoromethyl)-pyridine], the melting point came out at 133.23 °C. The IC50 in data set [1] is 91.2 nM.

Molecule `COc1cccnc1COc1ccc(-c2nn(CC(F)(F)F)cc2-c2ccncc2)cc1` [Compound B9, 3-methoxy-2-[[4-[4-(4-pyridinyl)-1-(2,2,2-trifluoroethyl)-1H-pyrazol-3-yl]phenoxy]methyl]-pyridine] displayed a melting point of 147 °C. Also, in data set [1], the IC50 was 5.13 nM.

The molecule `FCCOc1cccnc1COc1ccc(-c2nn(CCF)cc2-c2ccncc2)cc1` (as salt: succinate) [Compound B17, 3-(2-fluoroethoxy)-2-[[4-[1-(2-fluoroethyl)-4-(4-pyridinyl)-1H-pyrazol-3-yl]phenoxy]methyl]pyridine.succinate] gave a melting point of 114.18 °C.

As for `COc1ccc(COc2ccc(-c3nn(CCF)cc3-c3ccncc3)cc2)nc1` [Compound B4, 2-[[4-[1-(2-fluoroethyl)-4-(4-pyridinyl)-1H-pyrazol-3-yl]phenoxy]methyl]-5-methoxy-pyridine], the melting point stood at 117.52 °C. Also, the 50% inhibitory concentration (IC50) in data set [1] is 3.31 nM.

`FCCn1cc(-c2ccncc2)c(-c2ccc(OCc3cccc(C4CC4)n3)cc2)n1` (as salt: succinate) [Compound B8, 2-Cyclopropyl-6-[[4-[1-(2-fluoroethyl)-4-(4-pyridinyl)-1H-pyrazol-3-yl]phenoxy]methyl]-pyridine.succinate]: the melting point was 91.25 °C.

With `FCCCn1cc(-c2ccncc2)c(-c2ccc(OCc3ncccc3OCCF)cc2)n1` (as salt: succinate) [Compound B13, 3-(2-fluoroethoxy)-2-[[4-[1-(3-fluoropropyl)-4-(4-pyridinyl)-1H-pyrazol-3-yl]phenoxy]methyl]pyridine.succinate], the melting point worked out at 118.38 °C.

Turning to `N#Cc1cccc(COc2ccc(-c3nn(CCF)cc3-c3ccncc3)cc2)n1` [Compound B26, 6-[[4-[1-(2-fluoroethyl)-4-(4-pyridinyl)-1H-pyrazol-3-yl]phenoxy]methyl]-2-pyridinecarbonitrile], the melting point came to 148.7 °C. For the same molecule, the IC50 in data set [1] was 33.1 nM.

In the case of `COc1cccnc1COc1ccc(-c2nn(CCCF)cc2-c2ccncc2)cc1` [Compound B12, 2-[[4-[1-(3-fluoropropyl)-4-(4-pyridinyl)-1H-pyrazol-3-yl]phenoxy]methyl]-3-methoxy-pyridine], the melting point was determined as 165.9 °C. In addition, in data set [1], the IC50 is 13.2 nM.

`FCCOc1ccc(COc2ccc(-c3nn(CCF)cc3-c3ccncc3)cc2)nc1` [Compound B19, 5-(2-fluoroethoxy)-2-[[4-[1-(2-fluoroethyl)-4-(4-pyridinyl)-1H-pyrazol-3-yl]phenoxy]methyl]-pyridine] yielded a melting point of 212.7 °C. Further, the half-inhibitory concentration (IC50) in data set [1] was 100 nM.

On to `Cc1cnc(COc2ccc(-c3nn(CC[18F])cc3-c3ccncc3)cc2)c(C)c1` [[^18F]B-3], for which the “BP (binding potential) at baseline” value on PDE10A came to 4.1.

In turn, `COc1ccc(COc2ccc(-c3nn(CC(F)(F)F)cc3-c3ccncc3)cc2)nc1` [Compound B5, 5-methoxy-2-[[4-[4-(4-pyridinyl)-1-(2,2,2-trifluoroethyl)-1H-pyrazol-3-yl]phenoxy]methyl]-pyridine] showed a melting point of 136.3 °C. The IC50 in data set [1] is 5.13 nM.

As to `FCCn1cc(-c2ccncc2)c(-c2ccc(OCc3ccc(Br)cn3)cc2)n1` [Compound B20, 5-bromo-2-[[4-[1-(2-fluoroethyl)-4-(4-pyridinyl)-1H-pyrazol-3-yl]phenoxy]methyl]-pyridine], the melting point was found to be 125.8 °C. For the same molecule, the IC50 in data set [1] is 9.55 nM.

For `Cc1cccc(COc2ccc(-c3nn(CCCF)cc3-c3ccncc3)cc2)n1` (as salt: hydrochloride) [Compound B2, 2-[[4-[1-(3-fluoropropyl)-4-(4-pyridinyl)-1H-pyrazol-3-yl]phenoxy]methyl]-6-methyl-pyridine.hydrochloride], the melting point was 106.51 °C.

`COc1ccc(Br)c(COc2ccc(-c3nn(CCF)cc3-c3ccncc3)cc2)n1` [Compound B27, 3-bromo-2-[[4-[1-(2-fluoroethyl)-4-(4-pyridinyl)-1H-pyrazol-3-yl]phenoxy]methyl]-6-methoxy-pyridine] came in with a melting point of 119.2 °C. For the same molecule, the concentration for half-maximal inhibition (IC50) in data set [1] is 28.2 nM.
